Measurements: US20150258220A1, “MAGNETIC RESONANCE IMAGING AND/OR SPECTROSCOPY CONTRAST AGENTS AND METHODS OF USE THEREOF” (Duke University, priority 2008, published 2015)

Assays:
[1] = 13C NMR inversion recovery of diacetyl / monohydrate in water; format: physicochemical; settings: pH 7, water
Experimental: ^13C-labelled diacetyl was prepared from ^13C2 oxalate, which was reacted with N, N′-dimethylethylenediamine to afford 2,3-^13C2-1,4-dimethylpiperazine-2,3-dione in 97% yield. Two equivalents of methyl magnesium bromide were added to the piperazine dione to produce the dimethyl piperazine N,O-acetal. Crude acetal was hydrolyzed with 10% aqueous HCl to yield 2,3-^13C2-diacetyl, which was purified by fractional distillation. The carbonyl carbons in diacetyl are magnetically equivalent by symmetry, so at modest resolution (such as that commonly achieved in an imaging system), the spectrum is expected to have only a single line. Neat 2,3-^13C diacetyl does have a single line carbon-13 NMR spectrum, however the carbon spectrum in water has five lines. In water, the monohydrate (i.e., CH3—(^13C═O)(^13C(OH)2)CH3) with classic AX doublets (splitting JC-C=50 Hz) is the majority species. See Bell, Adv. Phys. Org. Chem., 4, 1 (1966); Bell and McDougall, Trans. Faraday Soc., 56, 1281-1285 (1960); and Greenzaid et al., J. Am. Chem. Soc., 89, 749 (1967). The dihydrate is undetectable. Equilibrium can be shifted back to diacetyl by changing solvent, and the rate of interconversion is pH dependent. At pH 7, inversion of the diacetyl alone causes recovery in 8 s, which gives the rate of dehydration. Inversion of all lines causes diacetyl to recover in 22 s.

[2] = DNP hyperpolarization (Oxford HYPERSENSE), single-shot 13C NMR in water; format: physicochemical; settings: hyperpolarized sample in water
From the text: FIG. 1 is a single-shot hyperpolarized ^13C nuclear magnetic resonance (NMR) spectrum of 2,3-^13C diacetyl in water. Hyperpolarized 2,3-^13C diacetyl was produced by a commercially available hyperpolarizer (Oxford HYPERSENSE™, Oxford Instruments Molecular Biotools Ltd., Tubney Woods, Abingdon, Oxfordshire, United Kingdom). The sample has about 20% nuclear polarization. The thermally polarized spectrum (not shown) is similar after many averages.
In some embodiments, the hyperpolarizing is performed by DNP. DNP refers to transferring spin polarization from electrons to nuclei. DNP can be performed by doping a material with a free radical. The unpaired electrons in the free radical can be polarized, for example, by exposure to a high magnetic field and low temperature. Irradiation at the electron paramagnetic resonance frequency can then serve to transfer polarization to the nuclei. By “hyperpolarization,” it is meant that the sample is polarized to a level over that found at room temperature and 1 Tesla, preferably polarized to a polarization degree in excess of 0.1%, more preferably 1%, even more preferably 10%.

[3] = butter; cited from earlier work

- nuclear polarization [2]: about 20%
Compound: CC(=O)C(C)=O [diacetyl]
- recovery time after inversion of the diacetyl alone (gives the rate of dehydration) [1]: 8 s
- recovery time of diacetyl after inversion of all lines [1]: 22 s
- partitioning between phases [3]: mostly found in the fatty phase
